In PubChem BioAssay AID493117 (Broad Institute, 2011):
Results filed as inconclusive are left out. Calls of active or inactive are those of the source.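 The calls were made as follows: active = every test run gives a fitted half-maximal dose no higher than ten times the top tested dose, with signal falling; inconclusive = runs disagree, or a flat mid-level drop or poor fit; inactive = every test run inactive.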

Each molecule was assayed against Autoinducer 2-binding periplasmic protein LuxP (Vibrio harveyi) + Autoinducer 2 sensor kinase/phosphatase LuxQ (Vibrio harveyi) (UniProt P54300+P54302) (assay: inhibitors of AI-2-induced luminescence in V. harveyi MM32, dose response, mechanism study for V. harveyi quorum sensing inhibitors, strain MM32 LuxS-null, dry powder, set 3 (AID 493117)). Settings: AI-2 luminescence, 5 h.
Chain of Autoinducer 2-binding periplasmic protein LuxP (Vibrio harveyi) + Autoinducer 2 sensor kinase/phosphatase LuxQ (Vibrio harveyi) (P54300 whole entry, looked up): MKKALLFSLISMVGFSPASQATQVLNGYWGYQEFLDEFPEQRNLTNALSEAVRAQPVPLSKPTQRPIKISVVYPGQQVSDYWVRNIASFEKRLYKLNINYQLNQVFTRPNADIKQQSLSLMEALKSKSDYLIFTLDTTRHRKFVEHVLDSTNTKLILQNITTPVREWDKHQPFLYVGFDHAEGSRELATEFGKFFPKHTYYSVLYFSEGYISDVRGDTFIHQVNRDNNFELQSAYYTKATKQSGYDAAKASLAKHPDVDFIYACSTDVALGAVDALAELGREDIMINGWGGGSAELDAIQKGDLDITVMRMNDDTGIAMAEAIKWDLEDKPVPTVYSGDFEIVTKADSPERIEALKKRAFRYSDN
Chain of Autoinducer 2-binding periplasmic protein LuxP (Vibrio harveyi) + Autoinducer 2 sensor kinase/phosphatase LuxQ (Vibrio harveyi) (P54302 whole entry, looked up): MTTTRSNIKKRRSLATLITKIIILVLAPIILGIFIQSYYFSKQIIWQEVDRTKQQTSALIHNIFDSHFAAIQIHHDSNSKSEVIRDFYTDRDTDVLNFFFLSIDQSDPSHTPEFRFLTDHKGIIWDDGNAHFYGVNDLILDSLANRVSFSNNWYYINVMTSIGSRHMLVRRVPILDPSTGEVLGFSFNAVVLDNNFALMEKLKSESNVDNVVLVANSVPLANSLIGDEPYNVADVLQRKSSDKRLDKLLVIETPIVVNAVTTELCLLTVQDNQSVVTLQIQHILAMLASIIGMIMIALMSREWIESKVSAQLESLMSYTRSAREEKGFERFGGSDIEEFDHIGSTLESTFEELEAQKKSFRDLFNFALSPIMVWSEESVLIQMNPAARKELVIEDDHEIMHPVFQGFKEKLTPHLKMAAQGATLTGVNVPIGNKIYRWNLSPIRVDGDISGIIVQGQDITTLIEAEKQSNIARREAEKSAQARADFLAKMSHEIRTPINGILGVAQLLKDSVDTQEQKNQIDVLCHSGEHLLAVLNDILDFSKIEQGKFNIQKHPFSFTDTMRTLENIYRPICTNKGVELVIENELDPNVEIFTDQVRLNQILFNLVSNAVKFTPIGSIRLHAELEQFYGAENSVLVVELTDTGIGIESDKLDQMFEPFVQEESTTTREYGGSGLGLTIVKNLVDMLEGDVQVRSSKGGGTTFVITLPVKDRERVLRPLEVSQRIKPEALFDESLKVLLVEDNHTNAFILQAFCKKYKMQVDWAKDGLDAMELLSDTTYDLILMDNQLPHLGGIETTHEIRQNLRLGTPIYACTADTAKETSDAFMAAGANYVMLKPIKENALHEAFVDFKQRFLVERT

AC50	Structure (SMILES)
11.3 µM	C[C@@H]1CN([C@H](C)CO)C(=O)c2ccccc2-c2ccccc2CO[C@@H]1CN(C)Cc1ccc(Oc2ccccc2)cc1
2.42 µM	Cn1cnc(S(=O)(=O)Nc2ccc(OC(F)(F)F)cc2)c1
3.61 µM	CCc1ccc(-c2ccc(C(=O)O)n2C)cc1
0.591 µM	O=S(=O)(Nc1cccnc1)c1ccc(Oc2ccccc2)cc1
1.35 µM	O=S(=O)(Nc1ccccn1)c1ccc(Oc2ccccc2)cc1
7.08 µM	C=Cn1c(C(=O)O)ccc1-c1ccc(OC)cc1
4.46 µM	C=Cn1c(C(=O)O)ccc1-c1ccc(Cl)cc1
2.32 µM	C=Cn1c(C(=O)O)ccc1-c1ccc(CC)cc1
3.45 µM	O=C1C=C/C(=C/Br)O1
18.4 µM	Cc1noc(C)c1S(=O)(=O)Nc1ccc2c(c1)C(=O)N([C@@H](C)CO)C[C@@H](C)[C@@H](CN(C)Cc1ccc(Oc3ccccc3)cc1)O2

Same assay, conditions: AI-2 luminescence, 5 h, at 16 µM (top of the series)

activity change, negative = inhibition	Structure (SMILES)
inactive	O=S(=O)(Nc1ccccn1)c1ccccc1
inactive	CC(=O)Nc1ccccc1NS(=O)(=O)c1cn(C)cn1
inactive	CN(C)C(=O)c1ccccc1NS(=O)(=O)c1cn(C)cn1
inactive	C[C@H](CO)N1C[C@H](C)[C@H](CN(C)Cc2ccc(C(=O)O)cc2)Oc2ncc(-c3ccc(C(=O)N(C)C)cc3)cc2C1=O
inactive	CCc1ccc(-c2ccc(C(=O)O)n2CC)cc1
inactive	Cc1ccccc1NS(=O)(=O)c1cn(C)cn1
inactive	Cn1cnc(S(=O)(=O)Nc2ccccc2Cl)c1
inactive	COc1ccccc1NS(=O)(=O)c1cn(C)cn1
inactive	C=Cn1c(C(=O)O)ccc1-c1cccs1
inactive	Cn1cnc(S(=O)(=O)Nc2ccccc2F)c1
